Assays:
G733D/N736K BKCa channel [1] = molecular target: T1, G733D/N736K BKCa channel (Homo sapiens, UniProt Q12791, G856D/N859K); assay: Patch clamp macroscopic current recording, G733D/N736K BKCa channel; format: cell-based
T1 construct: NO: 4; expressed in transfected cells
Protocol: (§1) Macroscopic current recordings were performed using a gigaohm seal patch clamp method. Patch pipettes were made from borosilicate glass (WPI, Sarasota, Fla.), and then fire polished with resistance of 3-5 MΩ. The channel currents were amplified using Axopatch 200B amplifier (Axon Instruments, Foster City, Calif.), low-pass filtered at 1 or 2 kHz using a four-pole Bessel filter, and then digitized at a rate of 10 or 20 points/ms using a Digidata 1200 A digitizer (Axon Instruments). The ionic currents of BKCa channels were activated by voltage-clamped pulses delivered from a holding potential of −100 mV to membrane potentials ranging from −80 mV to 200 mV in increments of 10 mV. The intracellular and extracellular solutions contained, unless otherwise specified, 116 mM KOH (Sigma), 4 mM KCl (Sigma), 10 mM HEPES and 5 mM EGTA (Sigma), and were titrated to pH 7.2 using MES (2-(N-morpholino)ethanesulfonic acid). In order to precisely measure [Ca^2+]i, the appropriate amount of total […] to be added to the intracellular solution was calculated using MaxChelator software (Patton, et al., 2004; http://maxchelator.stanford.edu/).
In order to evaluate the suitability of cell lines stably expressing G733D/N736K channels as a platform for identification of BKCa channel modulators, the function of a strong BKCa channel activator, CTBIC, which potentiates mutated channel activity, was investigated (Gormemis, et al., 2005; Lee, et al., 2012). […] The relative conductance (G/Gmax) was obtained by normalizing the tail currents (evoked by a step hyperpolarization to −100 mV from a given voltage) to the maximum tail current. The G/Gmax values at 0 μM and 10 μM CTBIC were fitted using a Boltzmann function.

G733D/N736K BKCa channel [2] = molecular target: T1, G733D/N736K BKCa channel; assay: FluxOR fluorescence-based assay, cells stably expressing G733D/N736K BKCa channel; format: cell-based
Protocol: (§2) Commercially available FluxOR™ Potassium Ion Channel Assay (Invitrogen) was used in order to perform a fluorescence-based assay for BKCa channels. AD-293 cells stably expressing WT and G733D/N736K BKCa channels were plated onto a poly-D-lysine (Sigma)-coated 96-well microplate (Corning) (5×10^4 cells per well). Cells were pre-cultured with a test compound, CTBIC (4-chloro-7-(trifluoromethyl)-10H-benzofuro[3,2-b]indole-1-carboxylic acid) for 30 minutes in advance of the recording. The fluorescence signal was measured using a Synergy™ H1 Hybrid Multi-Mode Microplate Reader (BioTek Instrument, Inc., Winnoski, Vt.) with Gen5 software. […] The microplate was read every 15 seconds in order to identify whether or not the system of the present invention is suitable for high throughput screening using a standard fluorimeter.
(§3) Finally, the present inventors performed experiments to determine whether cells stably expressing hyperactive BKCa channels are suitable for high-throughput screening for channel activators. […] When cells reached 80% to 90% confluence, FluxOR™ signals were measured. Further, the fluorescence signals from parental AD-293 cell lines were measured as a control group. Prior to reading out the fluorescence, the cells were pre-treated with 10 μM CTBIC or DMSO (control group). […] Relative fluorescence unit (RFU) values increased up to 2.3-fold as compared to basal responses.

WT BKCa channel [3] = molecular target: T2, WT BKCa channel (Homo sapiens, UniProt Q12791); assay: FluxOR fluorescence-based assay, cells stably expressing WT BKCa channel; conditions: 10 μM CTBIC, stable cell lines expressing WT channel, FIG. 5b
T2 construct: expressed in transfected cells
T2 sequence (Q12791 1-1178 isoform Q12791-5): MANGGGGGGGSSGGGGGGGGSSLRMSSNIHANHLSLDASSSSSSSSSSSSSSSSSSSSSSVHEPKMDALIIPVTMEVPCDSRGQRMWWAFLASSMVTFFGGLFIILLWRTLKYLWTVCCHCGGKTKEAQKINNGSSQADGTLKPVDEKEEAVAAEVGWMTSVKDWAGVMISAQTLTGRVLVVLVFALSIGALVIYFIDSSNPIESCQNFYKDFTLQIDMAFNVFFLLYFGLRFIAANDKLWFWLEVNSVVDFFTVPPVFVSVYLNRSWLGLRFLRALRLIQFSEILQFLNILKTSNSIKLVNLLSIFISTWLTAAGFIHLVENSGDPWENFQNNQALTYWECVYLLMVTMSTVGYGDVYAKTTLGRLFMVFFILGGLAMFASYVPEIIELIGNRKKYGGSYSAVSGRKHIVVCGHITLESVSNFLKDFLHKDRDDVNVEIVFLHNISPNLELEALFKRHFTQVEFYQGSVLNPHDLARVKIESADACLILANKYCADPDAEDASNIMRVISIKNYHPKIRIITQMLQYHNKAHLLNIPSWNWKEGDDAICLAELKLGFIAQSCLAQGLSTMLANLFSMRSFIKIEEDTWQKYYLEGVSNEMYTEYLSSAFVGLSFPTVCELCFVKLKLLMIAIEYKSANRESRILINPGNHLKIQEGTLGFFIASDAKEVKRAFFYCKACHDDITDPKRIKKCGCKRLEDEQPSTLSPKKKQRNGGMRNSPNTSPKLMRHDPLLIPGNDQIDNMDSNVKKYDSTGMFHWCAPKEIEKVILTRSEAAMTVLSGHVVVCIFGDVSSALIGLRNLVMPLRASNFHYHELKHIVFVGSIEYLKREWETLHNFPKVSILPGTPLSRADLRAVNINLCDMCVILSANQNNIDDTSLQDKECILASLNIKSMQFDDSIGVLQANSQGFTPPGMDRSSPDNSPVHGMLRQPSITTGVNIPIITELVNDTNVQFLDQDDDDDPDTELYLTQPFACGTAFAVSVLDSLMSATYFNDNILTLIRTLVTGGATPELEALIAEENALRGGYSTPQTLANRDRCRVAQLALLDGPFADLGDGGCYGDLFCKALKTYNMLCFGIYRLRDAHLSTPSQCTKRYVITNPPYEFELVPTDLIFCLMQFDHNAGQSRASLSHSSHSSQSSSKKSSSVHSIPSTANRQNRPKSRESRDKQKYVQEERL
Protocol: as §2, §3

parental AD-293 cells = assay: FluxOR fluorescence-based assay, parental cell line (control); conditions: 10 μM CTBIC, FIG. 5a
Protocol: as §2, §3

WT BKCa channel [4] = molecular target: T2, WT BKCa channel; assay: Patch clamp macroscopic current recording, WT BKCa channel; format: cell-based
Protocol: as §1, with “http://maxchelator.stanford.edu/). […]” for “http://maxchelator.stanford.edu/).”

T1 sequence (Q12791 66-1178 isoform Q12791-5 G798D/N801K): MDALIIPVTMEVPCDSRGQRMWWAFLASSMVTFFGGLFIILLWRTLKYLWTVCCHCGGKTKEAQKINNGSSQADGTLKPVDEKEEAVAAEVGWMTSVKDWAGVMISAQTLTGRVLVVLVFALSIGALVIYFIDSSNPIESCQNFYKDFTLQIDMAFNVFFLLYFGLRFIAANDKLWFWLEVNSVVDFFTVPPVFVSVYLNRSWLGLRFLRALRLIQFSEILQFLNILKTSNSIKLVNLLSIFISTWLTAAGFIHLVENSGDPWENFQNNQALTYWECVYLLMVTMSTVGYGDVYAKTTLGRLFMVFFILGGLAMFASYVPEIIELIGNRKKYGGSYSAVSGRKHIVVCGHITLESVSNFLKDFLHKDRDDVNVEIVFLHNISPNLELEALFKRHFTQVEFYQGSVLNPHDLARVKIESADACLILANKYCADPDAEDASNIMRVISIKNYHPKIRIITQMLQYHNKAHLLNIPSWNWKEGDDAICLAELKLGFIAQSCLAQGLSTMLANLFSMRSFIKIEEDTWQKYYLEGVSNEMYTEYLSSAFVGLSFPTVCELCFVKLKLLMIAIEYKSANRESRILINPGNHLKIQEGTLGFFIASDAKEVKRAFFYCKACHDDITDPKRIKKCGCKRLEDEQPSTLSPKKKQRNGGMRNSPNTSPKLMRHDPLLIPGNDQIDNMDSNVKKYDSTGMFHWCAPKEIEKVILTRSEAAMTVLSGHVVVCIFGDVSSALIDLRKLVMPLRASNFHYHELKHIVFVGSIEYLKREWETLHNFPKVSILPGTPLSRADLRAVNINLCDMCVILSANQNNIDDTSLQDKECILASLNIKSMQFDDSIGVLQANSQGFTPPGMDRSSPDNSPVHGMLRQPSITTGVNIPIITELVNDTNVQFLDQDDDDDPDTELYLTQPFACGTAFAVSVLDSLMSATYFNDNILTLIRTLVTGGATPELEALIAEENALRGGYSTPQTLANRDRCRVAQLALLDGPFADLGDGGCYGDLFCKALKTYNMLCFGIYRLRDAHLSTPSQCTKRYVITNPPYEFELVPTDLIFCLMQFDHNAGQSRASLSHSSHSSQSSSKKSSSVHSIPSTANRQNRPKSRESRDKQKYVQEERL

O=C(O)c1ccc(Cl)c2c1[nH]c1c3ccc(C(F)(F)F)cc3oc12 [CTBIC, 4-chloro-7-(trifluoromethyl)-10H-benzofuro[3,2-b]indole-1-carboxylic acid]
effect on ionic current (G733D/N736K BKCa channel [1]; 10 μM CTBIC added to membrane patch, 100 nM [Ca2+]i, FIG. 4b): strongly potentiated
shift of G-V curve (G733D/N736K BKCa channel [1]; 10 μM CTBIC, FIG. 4c): shifted in the negative direction
shift in V1/2 value (V1/2 free vs. V1/2 10 μM) (G733D/N736K BKCa channel [1]; 10 μM CTBIC, compared with WT channel, FIG. 4d): much larger than the shift for the WT channel
Relative fluorescence unit (RFU) increase as compared to basal responses (G733D/N736K BKCa channel [2]; 10 μM CTBIC, 30 min pre-treatment, AD-293 cells stably expressing G733D/N736K channel, stimulus buffer 10 mM free K+): up to 2.3 fold
increase in fluorescence signals (G733D/N736K BKCa channel [2]; stimulus with 10 μM CTBIC, FIG. 5c): ~2.3 times
fluorescence increase (WT BKCa channel [3]): about 1.3 fold
impact on the induced fluorescence increase (parental AD-293 cells): minimum impact
effect on ionic current (WT BKCa channel [4]; 10 μM CTBIC added to membrane patch, 100 nM [Ca2+]i, FIG. 4a): strongly potentiated
shift of G-V curve (WT BKCa channel [4]; 10 μM CTBIC, FIG. 4c): shifted in the negative direction

From patent publication US20160061816A1, “SCREENING METHOD FOR ION CHANNEL MODULATORS USING MUTATED BKCA CHANNEL” (GWANGJU INSTITUTE OF SCIENCE AND TECHNOLOGY, priority 2013, published 2016)
